One block for each molecule: values may come before it.
What was measured:
[1] = biological target: T1, Aurora-A (Homo sapiens, UniProt O14965); assay: in vitro kinase binding, Aurora-A
T1 sequence (O14965 1-403): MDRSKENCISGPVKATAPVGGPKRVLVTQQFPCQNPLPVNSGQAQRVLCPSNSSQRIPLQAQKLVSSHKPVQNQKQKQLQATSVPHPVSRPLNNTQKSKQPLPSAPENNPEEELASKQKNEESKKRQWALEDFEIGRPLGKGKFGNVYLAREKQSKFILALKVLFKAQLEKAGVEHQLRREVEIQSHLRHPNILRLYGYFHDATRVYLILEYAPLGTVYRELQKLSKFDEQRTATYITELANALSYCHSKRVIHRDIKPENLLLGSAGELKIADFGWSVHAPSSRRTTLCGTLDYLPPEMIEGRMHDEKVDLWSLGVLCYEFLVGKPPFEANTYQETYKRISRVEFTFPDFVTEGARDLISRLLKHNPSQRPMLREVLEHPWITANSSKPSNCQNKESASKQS

[2] = biological target: CDK4-CyclinD1 (Homo sapiens, UniProt P11802); assay: in vitro kinase binding, CDK4-CyclinD1
Chain of CDK4-CyclinD1 (P11802 whole entry): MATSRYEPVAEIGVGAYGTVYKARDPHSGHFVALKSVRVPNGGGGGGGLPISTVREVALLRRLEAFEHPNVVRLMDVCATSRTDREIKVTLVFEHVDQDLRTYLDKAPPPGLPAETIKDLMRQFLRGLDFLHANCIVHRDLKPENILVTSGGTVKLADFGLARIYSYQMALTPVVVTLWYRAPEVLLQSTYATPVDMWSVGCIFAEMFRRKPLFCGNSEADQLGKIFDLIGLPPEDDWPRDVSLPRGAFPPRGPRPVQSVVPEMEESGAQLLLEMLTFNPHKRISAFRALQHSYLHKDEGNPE
Chain of CDK4-CyclinD1 (P24385 whole entry partner): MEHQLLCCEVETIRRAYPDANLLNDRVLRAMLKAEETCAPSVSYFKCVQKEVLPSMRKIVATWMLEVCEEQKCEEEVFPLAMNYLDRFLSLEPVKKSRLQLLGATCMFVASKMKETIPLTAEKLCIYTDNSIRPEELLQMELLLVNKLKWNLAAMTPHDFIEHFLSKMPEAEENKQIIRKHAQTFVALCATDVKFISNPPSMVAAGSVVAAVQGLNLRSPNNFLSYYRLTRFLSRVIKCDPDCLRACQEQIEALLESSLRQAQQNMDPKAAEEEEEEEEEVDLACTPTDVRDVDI

[3] = test system: N-Myc; assay: immunoblotting, N-Myc depletion in MYCN amplified neuroblastoma cell lines; format: cell-based; conditions: IMR-32 and SK-N-BE(2) cells, 0.5 μM, after 24 hours
Protocol: (§1) MCF-7 cells were cultured in complete Dulbecco's modified Eagle medium (DMEM) supplemented with 10% (vol/vol) heat-inactivated fetal bovine serum (FBS), 100 U/ml penicillin and 100 μg/ml streptomycin. HCC38 cells were cultured in RPMI medium with 10% FBS, 100 U/ml penicillin and 100 μg/ml streptomycin. Huh7 cells were cultured in DMEM medium with 10% FBS, 100 U/ml penicillin and 100 μg/ml streptomycin supplemented with 1% MEM non-essential amino acids (SIGMA M7145). IMR-32 and SK-N-BE(2) cells were cultured in Eagle's Minimum Essential Medium (EMEM) with 10% FBS, 100 U/ml penicillin and 100 μg/ml streptomycin. All the cell lines were maintained in a humidified incubator at 37° C. and 5% CO2.
(§2) Cells were treated with 13 and other compounds at indicated concentrations and incubation time. […] The protein concentration was determined using the Pierce BCA protein Assay kit and normalized before the samples were reduced in […] sample buffer and denatured at 95° C. in a heated block for 10 mins. […] The images were detected using Li-Cor Odyssey Fc imaging system and the immunoblots were quantified by densitometry using ImageJ software.

[4] = test system: p53 and p21; assay: immunoblotting, abundance of downstream signaling proteins in MCF-7 cells; format: cell-based; conditions: 4 hours and 24 hours
Protocol: as §1, §2

[5] = test system: IMR-32 and SK-N-BE(2) cells; assay: Alamar blue cellular viability assay, MYCN amplified neuroblastoma cells; format: cell-based; conditions: 3 days
Protocol: as §1
(§3) Cancer cells were seeded in media (50 μL) 24 h prior to treatment with compounds in 96-well plates. For MCF-7 and Huh7 cells, the seeding density is 2,500 cells/well; for HCC38, the density is 2,000 cells/well; and for IMR-32 and SK-N-BE(s), the density is 5,000 cells/well. Compounds were serially diluted in pre-warmed media and dosed to cells (final volume=100 μL; final DMSO concentration=0.5%). […] After 2 hours treatment period, the fluorescence of each well was read using a BioTek Synergy H1 plate reader. […]

[6] = test system: MCF-7 breast cancer cells; assay: cell cycle analysis using propidium iodide DNA staining; format: cell-based; conditions: compound treatment for 48 hours
[7] = biological target: T2, Aurora-A and N-Myc (Homo sapiens, UniProt O14965); assay: immunoblotting, dose-dependent degradation of Aurora-A and N-Myc in SK-N-BE(2) cells; format: cell-based; conditions: for degradation of Aurora-A and N-Myc (in words): 24 hours, dose series
T2 construct: endogenous in cells; host or cells: SK-N-BE(2)
T2 sequence (O14965 1-403): T1 sequence (O14965 1-403)
Protocol: as §1
(§4) Cells were treated with 13 and other compounds at indicated concentrations and incubation time. Cells were gently rinsed once with ice-cold PBS and then lysed in radioimmnuoprecipitation assay (RIPA) lysis buffer (50 mM Tris-HCl pH 7.4, 150 mM NaCl, 1% NP-40, 0.5% sodium deoxycholate, 0.1% SDS, 5 mM EDTA, 1 mM EGTA) supplemented with 1% protease inhibitor cocktail (Roche cOmplete) and 1% phosphatase inhibitor cocktail (PhosSTOP). Cell lysates were incubated on ice for 15 mins and then kept at −80° C. before further use. The lysates were thawed on ice and the supernatants were collected after centrifugation (@11,000 rpm) for 15 min at 4° C. The protein concentration was determined using the Pierce BCA protein Assay kit and normalized before the samples were reduced in […] sample buffer and denatured at 95° C. in a heated block for 10 mins. An equal amount of protein samples (10-30 μg per lane) were resolved using 4-20% Tris-glycine gels and transferred onto PVDF blotting membranes. Primary antibodies CDK4 (DCS-35, 1:2000), N-Myc (B8.4.B, 1:5000), p21 (F-5, 1:500), p53 (DO-1, 1:1000), Aurora-A (1G4, 1:1000), β-actin (A1978, 1:2000) were used for immunoblotting. The images were detected using Li-Cor Odyssey Fc imaging system and the immunoblots were quantified by densitometry using ImageJ software.

[8] = biological target: T3, CDK4 (Homo sapiens, UniProt P11802); assay: immunoblotting, degradation of CDK4 in MCF-7 cells; format: cell-based
T3 construct: endogenous in cells; host or cells: MCF-7
T3 sequence (P11802 whole entry): as the sequence (P11802 whole entry) above
Protocol: as §1, §4

[9] = test system: MCF-7, HCC38, Huh7, IMR-32 and SK-N-BE(2) cells; assay: Alamar blue cellular viability assay, all tested cell lines; format: cell-based; conditions: range over all tested cell lines; read-out: IC50, cytotoxicity
Protocol: as §1, §3

[10] = biological target: T1, Aurora-A; assay: immunoblotting, degradation of Aurora-A in MCF-7 cells; format: cell-based; design: endogenous in cells; host or cells: MCF-7
Protocol: as §1, §4

[11] = test system: MCF-7 cells; assay: Alamar blue cellular viability assay, MCF-7; format: cell-based
Protocol: as §1, §3

[12] = test system: Huh7; assay: Alamar blue cellular viability assay, Huh7; format: cell-based; conditions: Huh7, ribociclib-resistant, 5 days
Protocol: as §1, §3

[13] = test system: HCC38; assay: Alamar blue cellular viability assay, HCC38; format: cell-based; conditions: HCC38, ribociclib-resistant, 5 days
Protocol: as §1, §3

[14] = test system: cyclin D1; assay: immunoblotting, degradation of cyclin D1 in MCF-7 cells; format: cell-based
Protocol: as §1, §2

[15] = test system: Cyclin D and CDK4 complexes; assay: Western blot, degradation of Cyclin D and CDK4 complexes in MCF-7 cells; format: cell-based; conditions: MCF-7 breast cancer cells

SMILES: CNC(=O)c1ccc(Nc2ncc3cc(C(=O)N(C)C)n(C4CCCC4)c3n2)nc1 [Compound 12, 7-cyclopentyl-N,N-dimethyl-2-((5-(methylcarbamoyl)pyridin-2-yl)amino)-7H-pyrrolo[2,3-d]pyrimidine-6-carboxamide]
binding affinity with Aurora-A (in words) [1]: significant decrease of binding affinity with Aurora-A

SMILES: CN(C)C(=O)c1cc2cnc(Nc3ccc(C(=O)NCCCCCCOc4cccc5c4C(=O)N(C4CCC(=O)N(C)C4=O)C5=O)cc3)nc2n1C1CCCC1 (stereo not drawn) [Compound 15, 7-cyclopentyl-N,N-dimethyl-2-((4-((6-((2-(1-methyl-2,6-dioxopiperidin-3-yl)-1,3-dioxoisoindolin-4-yl)oxy)hexyl)carbamoyl)phenyl)amino)-7H-pyrrolo[2,3-d]pyrimidine-6-carboxamide]
binding affinity with Aurora-A (in words) [1]: maintains similar binding profile as the active form 13
degradation of Aurora-A and N-Myc (in words) [7]: did not affect the protein abundance even at the highest test concentration
potency shift from 13 (cytotoxicity) ([11]; MCF-7 cells, 5 days): 4,4 fold
potency shift from 13 (cytotoxicity) [12]: 20.8 fold
potency shift from 13 (cytotoxicity) [13]: 8.2 fold

SMILES: Cc1nc2c(F)cc(-c3nc(Nc4ccc(NC(=O)CCCCCCOc5cccc6c5C(=O)N(C5CCC(=O)NC5=O)C6=O)cc4)ncc3F)cc2n1C(C)C (stereo not drawn) [Compound 18, 7-((2-(2,6-dioxopiperidin-3-yl)-1,3-dioxoisoindolin-4-yl)oxy)-N-(4-((5-fluoro-4-(4-fluoro-1-isopropyl-2-methyl-1H-benzo[d]imidazol-6-yl)pyrimidin-2-yl)amino)phenyl)heptanamide]
cytotoxicity in MCF-7 cells (in words) ([11]; palbociclib- and abemaciclib-analogue-based degraders): the most potent compound

SMILES: CN(C)C(=O)c1cc2cnc(Nc3ccc(C(=O)NCCCCCCNc4cccc5c4C(=O)N(C4CCC(=O)NC4=O)C5=O)cc3)nc2n1C1CCCC1 (stereo not drawn) [Compound 22, 7-cyclopentyl-2-((4-((6-((2-(2,6-dioxopiperidin-3-yl)-1,3-dioxoisoindolin-4-yl)amino)hexyl)carbamoyl)-phenyl)amino)-N,N-dimethyl-7H-pyrrolo[2,3-d]pyrimidine-6-carboxamide]
degradation of Cyclin D and CDK4 complexes [15]: degrades Cyclin D and CDK4 complexes in a dose-dependent and time-dependent manner

SMILES: CN(C)C(=O)c1cc2cnc(Nc3ccc(N4CCNCC4)cn3)nc2n1C1CCCC1 [ribociclib, reference compound]
cell cycle effect [6]: induces G0/G1 arrest

Now from value to molecule, other results behind:

Kd [1]: 0.85 nM
Kd [2]: 3 nM
SMILES: CNC(=O)c1ccc(Nc2ncc3cc(C(=O)N(C)C)n(C4CCCC4)c3n2)cc1 [Compound 11, 7-cyclopentyl-N,N-dimethyl-2-((4-(methylcarbamoyl)phenyl)amino)-7H-pyrrolo[2,3-d]pyrimidine-6-carboxamide]

potency for depleting N-Myc protein compared to MLN8237 and CD532 [7]: more potent
half-life of Aurora-A ([10]; 100 nM compound): 1.9 h
degradation potency for Aurora-A at high concentration (hook effect) ([10]; 2 μM): lower degradation potency
DC50 ([10]; 4 hours, read-out: DC50 (half-maximal degradation concentration) for Aurora-A): 20 nM
Dmax ([10]; MCF7, after 4 hours, read-out: Dmax (maximum degradation efficacy) for Aurora-A): ~94%
SMILES: CN(C)C(=O)c1cc2cnc(Nc3ccc(C(=O)NCCCCCCOc4cccc5c4C(=O)N(C4CCC(=O)NC4=O)C5=O)cc3)nc2n1C1CCCC1 (stereo not drawn) [Compound 13, 7-cyclopentyl-2-((4-((6-((2-(2,6-dioxopiperidin-3-yl)-1,3-dioxoisoindolin-4-yl)oxy)hexyl)carbamoyl)phenyl)amino)-N,N-dimethyl-7H-pyrrolo[2,3-d]pyrimidine-6-carboxamide]
depletion of N-Myc [3]: almost complete depletion of N-Myc
effect on p21 abundance [4]: increased the abundance
effect on p53 [4]: significantly stabilized p53
cytotoxic potency compared to CD532 [5]: more potent than CD532
binding affinity with Aurora-A (in words) [1]: maintains its binding affinity to Aurora-A
cell cycle effect [6]: potent G2/M phase arrest
degradation of Aurora-A and N-Myc (in words) [7]: induced the degradation of Aurora-A and N-Myc in a dose-dependent manner
degradation of CDK4 (in words) [8]: no obvious degradation of CDK4 was observed
IC50 [9]: 18 to 135 nM
degradation of Aurora-A (in words) [10]: rapidly and potently induce the degradation of Aurora-A

Kd [1]: 380 nM
SMILES: CN(C)C(=O)c1cc2cnc(Nc3ccc(C(=O)NCCCCCCOc4cccc5c4C(=O)N(C4CCC(=O)NC4=O)C5=O)cn3)nc2n1C1CCCC1 (stereo not drawn) [Compound 14, 7-cyclopentyl-2-((5-((6-((2-(2,6-dioxopiperidin-3-yl)-1,3-dioxoisoindolin-4-yl)oxy)hexyl)carbamo-yl)pyridin-2-yl)amino)-N,N-dimethyl-7H-pyrrolo[2,3-d]pyrimidine-6-carboxamide]

binding affinity with Aurora-A (in words) [1]: weak binding
degradation of CDK4 (in words) [8]: weakly active
degradation of Aurora-A (in words) [10]: weakly active
binding to CDK4 (in words) [2]: weak binding
SMILES: CC(=O)c1c(C)c2cnc(Nc3ccc(C(=O)NCCCCCCOc4cccc5c4C(=O)N(C4CCC(=O)NC4=O)C5=O)cc3)nc2n(C2CCCC2)c1=O (stereo not drawn) [Compound 16, 4-((6-acetyl-8-cyclopentyl-5-methyl-7-oxo-7,8-dihydropyrido[2,3-d]pyrimidin-2-yl)amino)-N-(6-((2-(2,6-dioxopiperidin-3-yl)-1,3-dioxoisoindolin-4-yl)oxy)hexyl)benzamide]

binding affinity with Aurora-A (in words) [1]: weak binding affinity
degradation of CDK4 (in words) [8]: strong potency
degradation of Aurora-A (in words) [10]: strong potency
Kd [2]: 23 nM
SMILES: Cc1nc2c(F)cc(-c3nc(Nc4ccc(C(=O)NCCCCCCOc5cccc6c5C(=O)N(C5CCC(=O)NC5=O)C6=O)cc4)ncc3F)cc2n1C(C)C (stereo not drawn) [Compound 17, N-(6-((2-(2,6-dioxopiperidin-3-yl)-1,3-dioxoisoindolin-4-yl)oxy)hexyl)-4-((5-fluoro-4-(4-fluoro-1-isopropyl-2-methyl-1H-benzo[d]imidazol-6-yl)pyrimidin-2-yl)amino)benzamide]
degradation of cyclin D1 (in words) [14]: strong potency

From US12605452B2, “Compounds that degrade kinases and uses thereof” (Regents of the University of Minnesota, priority 2019, dated 2026)
